The text below walks through data of patent US20230107941A1, “HEPATITIS B CAPSID ASSEMBLY MODULATORS” (Venatorx Pharmaceuticals, Inc., priority 2019, published 2023).

Where two headings read alike, the source gives them in different places.

The CC50 is the concentration at which the toxic effect on the cells reaches its halfway point. As usually defined, the EC50 is the midpoint of the concentration-response curve.

For one series, the system named is HepG2 cells. Briefly: In vitro cytotoxicity assay (MTT cell viability) in HepG2 cells. It is filed as cell-based, human. The essentials: (§1)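 CC50 was derived by 4-parameter fit of viability relative to vehicle controls, measured as MTT formazan absorbance at 492 nm after 3–4 h of reagent and DMSO solubilization. Before that, HepG2 cells seeded overnight at 20,000/well were incubated 7 days at 37°C with compound from 30 μM down to 1.0 nM in half-log steps.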

For series [1], the system named is HBV. Briefly: In vitro antiviral assay: anti-HBV replication in HepAD38 cells (extracellular HBV DNA by QPCR). It is filed as cell-based, hepatitis B virus (genotype D, serotype ayw). Particulars: 7 days incubation, extracellular HBV DNA by QPCR, read-out: Anti-HBV EC50. A digest of the protocol: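 Read-out is extracellular HBV DNA (copies/mL, QPCR standard curve) after 7-day exposure of tet-free HepAD38 cells to 10-fold dilutions from 1 μM down to 10 pM. Values normalised to DMSO vehicle; EC50 from 4-parameter nonlinear regression, with entecavir validating each run.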

Series [2] can be described thus: In vitro cytotoxicity assay (MTT cell viability) in HepG2 cells. To be noted: human. It is filed as cell-based, human. The essentials: as §1
The subject of series [3] is HBV. To be noted: Phase 1b clinical trial, 600 mg bid dosing for 29 days; cited from earlier work.
The mark [4] stands for this setting: Hepatitis B virus, HePAD38, 168 h.

Regarding `Cc1cc(NC(=O)c2c(C)c(C(=O)C(=O)NC3CC(S(C)(=O)=O)C3)n(C)c2C)ccc1F` (stereo not shown) [Example 32, N-(4-fluoro-3-methylphenyl)-1,2,4-trimethyl-5-(2-(((1r,3r)-3-(methylsulfonyl)cyclobutyl)amino)-2-oxoacetyl)-1H-pyrrole-3-carboxamide], the 50% cytotoxic concentration (CC50) in the series on HepG2 cells (human, 7 days) was over 30 µM. For the same compound, in the series on HBV [1], the EC50 was in the range of 0.05 to 0.499 µM.
Turning to `Cc1cc(NC(=O)c2c(C)c(C(=O)C(=O)NC3(C)CC(OP(=O)(O)O)C3)n(C)c2C)ccc1F` (stereo not shown) [Example 64, sodium (1s,3s)-3-(2-(4-((4-fluoro-3-methylphenyl)carbamoyl)-1,3,5-trimethyl-1H-pyrrol-2-yl)-2-oxoacetamido)-3-methylcyclobutyl phosphate], the CC50 with HepG2 cells (HepG2 cells, 7 days incubation, MTT, read-out: HepG2 CC50) was over 30 µM. For the same compound, the EC50 with HBV [1] (setting [4]) was over 1 µM.
`Cc1c(C(=O)Nc2cccc(C#N)c2)c(C)n(C)c1C(=O)C(=O)N[C@]1(C)CC[C@@H](O)CC1` [Example 170, N-(3-cyanophenyl)-5-(2-(((1r,4r)-4-hydroxy-1-methylcyclohexyl)amino)-2-oxoacetyl)-1,2,4-trimethyl-1H-pyrrole-3-carboxamide]: in series [2], the 50% cytotoxic concentration (CC50) at 7 days is over 30 µM. Moreover, the concentration giving a half-maximal response (EC50) in the series with HBV [1] (setting [4]) is under 0.05 µM.
Regarding `Cc1cc(NC(=O)c2c(C)c(C(=O)C(=O)N[C@@H]3C[C@@H](C(=O)O)N(C)C3)n(C)c2C)ccc1F` [Example 171, (2S,4R)-4-(2-(4-((4-fluoro-3-methylphenyl)carbamoyl)-1,3,5-trimethyl-1H-pyrrol-2-yl)-2-oxoacetamido)-1-methylpyrrolidine-2-carboxylic acid], in series [2], the CC50 at 7 days is over 30 µM. The EC50 with HBV [1] (setting [4]) is over 1 µM.
For the compound `Cc1cc(NC(=O)c2c(C)c(C(=O)C(=O)NC3CCCN(CC(=O)O)C3)n(C)c2C)ccc1F` (stereo not shown) [Example 172, 2-(3-(2-(4-((4-fluoro-3-methylphenyl)carbamoyl)-1,3,5-trimethyl-1H-pyrrol-2-yl)-2-oxoacetamido)piperidin-1-yl)acetic acid], the CC50 at 7 days in series [2] is over 30 µM. Also, in the series with HBV [1] (setting [4]), the EC50 was over 1 µM.
Taken in the same sequence, the figures for `Cc1cc(NC(=O)c2c(C)c(C(=O)C(=O)N[C@H]3CN[C@H](C(=O)O)C3)n(C)c2C)ccc1F` [Example 173, (2S,4R)-4-(2-(4-((4-fluoro-3-methylphenyl)carbamoyl)-1,3,5-trimethyl-1H-pyrrol-2-yl)-2-oxoacetamido)pyrrolidine-2-carboxylic acid] were over 30 µM and 0.5 to 1 µM.
The like results for `Cc1cc(NC(=O)c2c(C)c(C(=O)C(=O)N[C@]3(C)C[C@H](O)C3)n(C)c2-c2nccs2)ccc1F` [Example 174, N-(4-fluoro-3-methylphenyl)-5-(2-(((1s,3s)-3-hydroxy-1-methylcyclobutyl)amino)-2-oxoacetyl)-1,4-dimethyl-2-(thiazol-2-yl)-1H-pyrrole-3-carboxamide] were, in that order, over 30 µM and 0.5 to 1 µM.
The compound `Cc1cc(NC(=O)c2c(C)c(C(=O)C(=O)N[C@H]3CC[C@@H](S(C)(=O)=O)CC3)n(C)c2-c2nccs2)ccc1F` [Example 175, N-(4-fluoro-3-methylphenyl)-1,4-dimethyl-5-(2-(((1s,4s)-4-(methylsulfonyl)cyclohexyl)amino)-2-oxoacetyl)-2-(thiazol-2-yl)-1H-pyrrole-3-carboxamide] registered a CC50 at 7 days in series [2] of over 30 µM. The EC50 in the series on HBV [1] (setting [4]) was over 1 µM.
The like results for `Cc1cc(NC(=O)c2c(C)c(C(=O)C(=O)N[C@]3(C)CC[C@H](O)CC3)n(C)c2-c2nccs2)ccc1F` [Example 176, N-(4-fluoro-3-methylphenyl)-5-(2-(((1s,4s)-4-hydroxy-1-methylcyclohexyl)amino)-2-oxoacetyl)-1,4-dimethyl-2-(thiazol-2-yl)-1H-pyrrole-3-carboxamide] were, in that order, over 30 µM and 0.05 to 0.499 µM.
The like results for `Cc1cc(NC(=O)c2c(C)c(C(=O)C(=O)N[C@H]3CC[C@@H](O)CC3)n(C)c2-c2nccs2)ccc1F` [Example 177, N-(4-fluoro-3-methylphenyl)-5-(2-(((1s,4s)-4-hydroxycyclohexyl)amino)-2-oxoacetyl)-1,4-dimethyl-2-(thiazol-2-yl)-1H-pyrrole-3-carboxamide] were, in that order, over 30 µM and over 1 µM.
Taken in the same sequence, the figures for `Cc1cc(NC(=O)c2c(C)c(C(=O)C(=O)NCC(C)(C)O)n(C)c2-c2nccs2)ccc1F` [Example 178, N-(4-fluoro-3-methylphenyl)-5-(2-((2-hydroxy-2-methylpropyl)amino)-2-oxoacetyl)-1,4-dimethyl-2-(thiazol-2-yl)-1H-pyrrole-3-carboxamide] were over 30 µM and over 1 µM.
Compound `Cc1cc(NC(=O)c2c(C)c(C(=O)C(=O)N[C@@H]3CN[C@H](C(=O)O)C3)n(C)c2C)ccc1F` [Example 179, (2S,4S)-4-(2-(4-((4-fluoro-3-methylphenyl)carbamoyl)-1,3,5-trimethyl-1H-pyrrol-2-yl)-2-oxoacetamido)pyrrolidine-2-carboxylic acid] registered a half-maximal cytotoxic concentration (CC50) at 7 days in series [2] of over 30 µM. Besides, the EC50 in the series on HBV [1] (setting [4]) was over 1 µM.
Consider `Cc1cc(NC(=O)c2c(C)c(C(=O)C(=O)N[C@@H]3CCN[C@H](C(=O)O)C3)n(C)c2C)ccc1F` [Example 180, (2S,4R)-4-(2-(4-((4-fluoro-3-methylphenyl)carbamoyl)-1,3,5-trimethyl-1H-pyrrol-2-yl)-2-oxoacetamido)piperidine-2-carboxylic acid], for which the half-maximal cytotoxic concentration (CC50) at 7 days in series [2] is over 30 µM. The EC50 with HBV [1] (setting [4]) was over 1 µM.
Taken in the same sequence, the figures for `Cc1cc(NC(=O)c2c(C)c(C(=O)C(=O)N[C@]3(C)C[C@H](O)C3)n(C)c2-c2ccsc2)ccc1F` [Example 181, N-(4-fluoro-3-methylphenyl)-5-(2-(((1s,3s)-3-hydroxy-1-methylcyclobutyl)amino)-2-oxoacetyl)-1,4-dimethyl-2-(thiophen-3-yl)-1H-pyrrole-3-carboxamide] were 5 to 30 µM and 0.5 to 1 µM.
The like results for `Cc1cc(NC(=O)c2c(C)c(C(=O)C(=O)N[C@H]3CC[C@@H](S(C)(=O)=O)CC3)n(C)c2-c2ccsc2)ccc1F` [Example 182, N-(4-fluoro-3-methylphenyl)-1,4-dimethyl-5-(2-(((1s,4s)-4-(methylsulfonyl)cyclohexyl)amino)-2-oxoacetyl)-2-(thiophen-3-yl)-1H-pyrrole-3-carboxamide] were, in that order, over 30 µM and over 1 µM.
`Cc1cc(NC(=O)c2c(C)c(C(=O)C(=O)N[C@]3(C)CC[C@H](O)CC3)n(C)c2-c2ccsc2)ccc1F` [Example 183, N-(4-fluoro-3-methylphenyl)-5-(2-(((1s,4s)-4-hydroxy-1-methylcyclohexyl)amino)-2-oxoacetyl)-1,4-dimethyl-2-(thiophen-3-yl)-1H-pyrrole-3-carboxamide]: in series [2], the 50% cytotoxic concentration (CC50) at 7 days was over 30 µM. Besides, in the series with HBV [1] (setting [4]), the EC50 fell in the range of 0.05 to 0.499 µM.
In series [2], `Cc1cc(NC(=O)c2c(C)c(C(=O)C(=O)N[C@H]3CC[C@@H](O)CC3)n(C)c2-c2ccsc2)ccc1F` [Example 184, N-(4-fluoro-3-methylphenyl)-5-(2-(((1s,4s)-4-hydroxycyclohexyl)amino)-2-oxoacetyl)-1,4-dimethyl-2-(thiophen-3-yl)-1H-pyrrole-3-carboxamide] yielded a CC50 at 7 days of 5 to 30 µM. Besides, in the series with HBV [1] (setting [4]), the EC50 is over 1 µM.
Taken in the same sequence, the figures for `Cc1cc(NC(=O)c2c(C)c(C(=O)C(=O)NCC(C)(C)O)n(C)c2-c2ccsc2)ccc1F` [Example 185, N-(4-fluoro-3-methylphenyl)-5-(2-((2-hydroxy-2-methylpropyl)amino)-2-oxoacetyl)-1,4-dimethyl-2-(thiophen-3-yl)-1H-pyrrole-3-carboxamide] were 5 to 30 µM and 0.5 to 1 µM.
With `CCN(C(=O)C(=O)c1c(C)c(C(=O)Nc2ccc(F)c(C)c2)c(C)n1C)C(C)C` [Example 186, 5-(2-(ethyl(isopropyl)amino)-2-oxoacetyl)-N-(4-fluoro-3-methylphenyl)-1,2,4-trimethyl-1H-pyrrole-3-carboxamide], the half-maximal cytotoxic concentration (CC50) at 7 days in series [2] is over 30 µM. For the same compound, in the series on HBV [1] (setting [4]), the concentration for a half-maximal effect (EC50) was in the range of 0.5 to 1 µM.
Compound `Cc1cc(NC(=O)c2c(C)c(C(=O)C(=O)N3CCOCC3)n(C)c2C)ccc1F` [Example 187, N-(4-fluoro-3-methylphenyl)-1,2,4-trimethyl-5-(2-morpholino-2-oxoacetyl)-1H-pyrrole-3-carboxamide] had a CC50 at 7 days in series [2] of over 30 µM. Moreover, in the series with HBV [1] (setting [4]), the EC50 lay in the range of 0.5 to 1 µM.
The like results for `CCC(CC)NC(=O)C(=O)c1c(C)c(C(=O)Nc2ccc(F)c(C)c2)c(C)n1C` [Example 188, N-(4-fluoro-3-methylphenyl)-1,2,4-trimethyl-5-(2-oxo-2-(pentan-3-ylamino)acetyl)-1H-pyrrole-3-carboxamide] were, in that order, 5 to 30 µM and under 0.05 µM.
Take `O=C(Nc1cc(F)c(F)c(F)c1)c1ccc(F)c(S(=O)(=O)N2CCC(O)CC2)c1` [NVR 3-778]: in the series with HBV [3], the “reduction in HBV DNA” value was −1.7 log 10.
